Measurements: patent publication US9707220B2 (The United States of America, as represented by the …, priority 2005, dated 2017)
Where “and” joins values, the source holds several entries; their conditions need not be identical. Equal values may be shown once. Marks after values point to notes of the source that are not given here.

Tests used:
Assay type in all cases: in vivo, human
[1] = test system: unmedicated, currently depressed patients meeting criteria for Major Depressive Disorder (MDD) or Bipolar Disorder (BD); assay: Example 1: double-blind randomized dose-finding study, 15-minute intravenous scopolamine infusions, MADRS depression severity in patients; parameters: key to MADRS score, Follow-up / MADRS score, Session 3, Pt. MEAN / MADRS score, Session 4, Pt. MEAN / MADRS score, Follow-up, Pt. MEAN / MADRS score, Post 2 μg/kg / MADRS score, Post 3 μg/kg / MADRS score, Post 4 μg/kg / MADRS score, Post 2 μg/kg, MEAN / MADRS score, Post 3 μg/kg, MEAN: Montgomery & Asberg Depression Rating Scale (MADRS) total score
Description: Prior to each infusion, a psychiatric interview was performed using the Montgomery & Asberg Depression Rating Scale (MADRS) to monitor depression severity across sessions. Participants were monitored continuously for the development of clinically relevant side effects. Sessions were scheduled a minimum of 3 days apart and a maximum of 5 days apart when possible. Follow-up psychiatric interviews were obtained when patients were available.
Comparisons also were made between MADRS scores obtained before and after each specific dose. […] Post evaluations for the last session were provided by the follow-up psychiatric interviews when available.

[2] = test system: unmedicated, currently depressed patients meeting the DSM-IV criteria for Major Depressive Disorder (MDD) or Bipolar Disorder (BD); assay: Example 2: double-blind, placebo-controlled, randomized cross-over study, MADRS depression severity
Excerpt: (§1) Session one was designed to be single-blind during which all subjects received a placebo infusion to allow for a baseline evaluation. The next six sessions were separated into two blocks of three sessions each; one block included a series of three placebo infusions (P Block) and the other a series of three scopolamine infusions (S Block). Individuals were randomized into either the P/S (placebo/scopolamine) series or the S/P (scopolamine/placebo) series, using a double-blind design. In total, all subjects received four placebo infusions and three scopolamine infusions. Prior to infusion, unstructured psychiatric interviews were completed using the Montgomery & Asberg Depression Rating Scale (MADRS) and the Hamilton Anxiety Scale to provide evaluations of depression and anxiety severity upon entering the study (i.e., baseline 1); following the first infusion as an assessment of placebo effects (i.e., baseline 2); after all infusions associated with block 1 (i.e., last evaluation block 1); and after all infusions associated with block 2 (i.e., last evaluation block 2) obtained during a follow-up psychiatric interview. Sessions were scheduled a minimum of 3 days apart and a maximum of 5 days apart when possible.
(§2) Patient diagnosis and features that contribute to prognosis, including history of response to conventional treatment, chronicity and comorbid anxiety disorders, are summarized in Table III.
(§3) Session one was designed to be single-blind during which all subjects received a placebo infusion to allow for a baseline evaluation in all subjects. Subsequently, individuals were randomized into either an P/S or S/P double-blind design whereby P is defined as a series of three sessions during which participants received placebo and S is defined as a series of three sessions during which participants received scopolamine. […] Prior to each infusion, unstructured psychiatric interviews were completed using the MADRS and the Hamilton Anxiety Scale. Sessions were scheduled a minimum of 3 days apart and a maximum of 5 days apart when possible. Follow-up psychiatric interviews were obtained to assess the effects of session seven. […] Repeated measures ANOVA was used to evaluate session differences, group differences and session X group effects. In the presence of significant ANOVA results, t-tests were used for within and between group comparisons to identify specific effects.

[3] = test system: unmedicated, currently depressed patients meeting the DSM-IV criteria for Major Depressive Disorder (MDD) or Bipolar Disorder (BD); assay: Example 2: double-blind, placebo-controlled, randomized cross-over study, Hamilton Anxiety Scale
Excerpt: as §1, §2, §3

[4] = 4.0 μg/kg iv, three infusions, p<0.005
[5] = both treatment groups, no change following placebo

CN1C2C[C@H](OC(=O)C(CO)c3ccccc3)CC1[C@H]1OC21 (stereo partly shown) [scopolamine]
MADRS score, Follow-up ([1]; individual patient, follow-up interview after all four sessions): 37 and 16 and 2 and 9 and 14 | MADRS score, Session 2 ([1]; individual patient, scored before the Session 2 infusion, after the Session 1 dose, iv 2, 3 or 4 μg/kg or placebo in random order, sessions 3-5 days apart): 36^d and 44^a and 25^a and 32^C and 18^b and 29^C and 15^d | MADRS score, Session 3 ([1]; individual patient, scored before the Session 3 infusion, after two earlier sessions, doses in random order): 35^b and 34^d and 31^b and 4^C and 25^a and 14^a and 22^d and 7^a | MADRS score, Session 4 ([1]; individual patient, scored before the Session 4 infusion, after three earlier sessions, doses in random order): 35^a and 22^b and 32^d and 8^d and 28^d and 11^d and 17^a and 7^b | MADRS score, Post 2 μg/kg ([1]; individual patient, scored in the next session, 3 to 5 days after 2 μg/kg iv): 37 and 32 (2×) and 4 and 14 and 29 and 35 | MADRS score, Post 3 μg/kg ([1]; individual patient, scored in the next session, 3 to 5 days after 3 μg/kg iv): 44 and 25 (2×) and 8 and 18 and 22 and 15 and 36 | MADRS score, Post 4 μg/kg ([1]; individual patient, scored in the next session, 3 to 5 days after 4 μg/kg iv): 22 and 16 and 2 and 9 and 14 and 17 and 7 and 35 | MADRS score, Session 3, Pt. MEAN ([1]; mean of 8 patients, irrespective of session dose): 21.5 | MADRS score, Session 4, Pt. MEAN ([1]; mean of 8 patients, irrespective of session dose, significantly less than baseline, p < 0.05): 20.0* | MADRS score, Follow-up, Pt. MEAN ([1]; mean of patients with follow-up, significantly less than baseline, p < 0.05): 15.6* | MADRS scores post 4.0 μg/kg compared to baseline and pre-4.0 μg/kg measures ([1]; p=0.0015 vs baseline, p=0.018 vs pre-dose): significantly lower | MADRS scores following session four compared to session one baseline ([1]; patient group, post-hoc t-test, p=0.01): significantly lower | MADRS scores following session three compared to session one baseline ([1]; patient group, post-hoc t-test, p=0.03): significantly lower | Antidepressant effect, MADRS across sessions (summary) ([1]; patient group, effect primarily after the 4.0 μg/kg dose): robust and rapid antidepressant effects | MADRS score, Post 2 μg/kg, MEAN ([1]; patient mean, baseline mean 29.00, pre-dose mean 22.38): 26.14 | MADRS score, Post 4 μg/kg, MEAN ([1]; patient mean, baseline mean 29.00, pre-dose mean 23.25, p = 0.0015 vs baseline, p = 0.018 vs pre-session): 15.25^#* | MADRS score, Post 3 μg/kg, MEAN ([1]; patient mean, baseline mean 29.00, pre-dose mean 27.63): 24.13 | MADRS scores post 2.0 and 3.0 μg/kg compared to baseline and pre-dose ([1]; t-tests, patient group): No other differences were significant | MADRS depression severity, P/S group at end of Block 2 (scopolamine) vs baseline measures and end of Block 1 [2, 4]: significantly lower | MADRS depression severity, S/P group at end of Block 1 (scopolamine) vs baseline 1 and baseline 2 [2, 4]: significantly lower | MADRS depression severity, S/P group vs P/S group at last evaluation of Block 1 ([2]; 4.0 μg/kg iv, three infusions, t=5.3, p<0.0001): significantly lower | Depressive symptoms (mean MADRS scores, FIG. 2) following treatment [2, 5]: significant improvement | MADRS depression severity, S/P group at end of Block 2 (placebo after scopolamine) vs baseline measures ([2]; persistence of effect, p<0.005): significantly lower | Hamilton Anxiety rating, P/S group at end of Block 2 (scopolamine) vs baseline 1, baseline 2 and end of Block 1 ([3]; 4.0 μg/kg iv, three infusions, p<0.001, p=0.02, p=0.002): significantly lower | Hamilton Anxiety rating, S/P group at end of Block 1 (scopolamine) vs baseline measures ([3]; 4.0 μg/kg iv, three infusions, p<0.01): significantly lower | Hamilton Anxiety score, S/P group vs P/S group at last evaluation of Block 1 ([3]; 4.0 μg/kg iv, three infusions, t=7.29, p=0.04): significantly lower | Anxiety symptoms (mean Hamilton Anxiety scores, FIG. 3) following treatment [3, 5]: significant improvement | Hamilton Anxiety rating, S/P group at end of Block 2 (placebo after scopolamine) vs baseline ([3]; persistence of effect, p=0.01): significantly lower
